Test [1] has as its system Mesenchymal stem cells. The test is described as follows: Induction of adipogenesis in differentiated human BMMSC cells assessed as increase in adiponectin level at 30 uM in presence of IDX by ELISA. Format: functional, cell-based. Background: In an ELISA, binding on a coated surface is turned into a signal by an enzyme label.
The test system of test [2] is Mesenchymal stem cells. Put plainly: Induction of adipogenesis in differentiated human BMMSC cells assessed as fold increase in adiponectin level at 5 uM in presence of IDX by ELISA relative to control. It is filed as functional.
Test [3] concerns Mesenchymal stem cells. The test is described as follows: Induction of adipogenesis in differentiated human BMMSC cells assessed as fold increase in adiponectin level at 30 uM in presence of IDX by ELISA relative to control. It is filed as functional.
Test [4] concerns Mesenchymal stem cells. The test is described as follows: Induction of adipogenesis in differentiated human BMMSC cells assessed as fold increase in adiponectin level in presence of IDX by ELISA. It is filed as functional, cell-based.
Test [5] concerns Mesenchymal stem cells. Put plainly: Induction of adipogenesis in differentiated human BMMSC cells assessed as increase in number and size of lipid droplets at 30 uM in presence of IDX by Oil red O staining based inverted microscope analysis. Format: functional, cell-based.
In test [6] the target is T1, Peroxisome proliferator-activated receptor alpha (Homo sapiens) (UniProt Q07869).
T1 sequence (whole entry): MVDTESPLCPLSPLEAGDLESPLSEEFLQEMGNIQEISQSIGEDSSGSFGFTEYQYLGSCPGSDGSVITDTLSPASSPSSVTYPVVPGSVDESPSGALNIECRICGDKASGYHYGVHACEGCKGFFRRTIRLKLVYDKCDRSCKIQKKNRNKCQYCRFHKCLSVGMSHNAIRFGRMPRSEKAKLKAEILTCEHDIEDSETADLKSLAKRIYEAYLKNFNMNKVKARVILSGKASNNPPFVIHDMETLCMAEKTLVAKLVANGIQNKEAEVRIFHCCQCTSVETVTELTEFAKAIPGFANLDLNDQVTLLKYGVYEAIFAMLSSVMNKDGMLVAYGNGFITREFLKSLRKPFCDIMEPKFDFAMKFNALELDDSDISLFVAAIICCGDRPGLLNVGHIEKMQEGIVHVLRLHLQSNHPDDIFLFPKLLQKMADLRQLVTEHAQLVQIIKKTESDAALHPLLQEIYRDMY
The test is described as follows: Displacement of fluormone pan-PPARgreen from PPARalpha (unknown origin) at 30 uM by TR-FRET based competitive binding assay relative to control.

Test [7] has as its target T2, Peroxisome proliferator-activated receptor gamma (Homo sapiens) (UniProt P37231).
T2 sequence (whole entry): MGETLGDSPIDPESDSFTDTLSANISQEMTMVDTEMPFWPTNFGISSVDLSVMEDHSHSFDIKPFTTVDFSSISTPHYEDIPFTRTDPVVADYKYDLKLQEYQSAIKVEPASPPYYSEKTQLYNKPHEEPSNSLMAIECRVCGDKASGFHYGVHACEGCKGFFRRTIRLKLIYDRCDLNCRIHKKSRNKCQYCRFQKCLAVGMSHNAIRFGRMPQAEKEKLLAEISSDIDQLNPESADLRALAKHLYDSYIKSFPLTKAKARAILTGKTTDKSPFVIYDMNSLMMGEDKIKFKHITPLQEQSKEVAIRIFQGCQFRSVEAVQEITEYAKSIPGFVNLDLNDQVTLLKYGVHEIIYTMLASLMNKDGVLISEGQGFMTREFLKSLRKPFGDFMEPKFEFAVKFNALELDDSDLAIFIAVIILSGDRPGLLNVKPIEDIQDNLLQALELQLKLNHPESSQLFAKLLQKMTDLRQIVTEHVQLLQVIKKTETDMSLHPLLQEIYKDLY
The test is described as follows: Displacement of fluormone pan-PPARgreen from PPARgamma (unknown origin) at 30 uM by TR-FRET based competitive binding assay relative to control. Conditions: filed as partial agonist. (In general: Time-resolved FRET reads energy transfer from a long-lived donor to a nearby acceptor.)

Test [8] concerns the target T3, Peroxisome proliferator-activated receptor delta (Homo sapiens) (UniProt Q03181).
T3 sequence (whole entry): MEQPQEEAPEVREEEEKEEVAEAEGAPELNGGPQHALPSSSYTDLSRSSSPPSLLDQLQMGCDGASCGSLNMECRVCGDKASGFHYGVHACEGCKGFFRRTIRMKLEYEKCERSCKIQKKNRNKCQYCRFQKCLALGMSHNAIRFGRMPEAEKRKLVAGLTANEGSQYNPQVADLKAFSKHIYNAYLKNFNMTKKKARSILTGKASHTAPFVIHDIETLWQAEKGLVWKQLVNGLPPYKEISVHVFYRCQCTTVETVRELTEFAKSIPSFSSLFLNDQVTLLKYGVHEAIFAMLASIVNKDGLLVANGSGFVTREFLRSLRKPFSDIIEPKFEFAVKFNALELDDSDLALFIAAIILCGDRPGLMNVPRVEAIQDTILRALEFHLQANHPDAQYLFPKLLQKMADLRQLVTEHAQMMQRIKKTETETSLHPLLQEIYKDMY
Put plainly: Displacement of fluormone pan-PPARgreen from PPARdelta (unknown origin) at 30 uM by TR-FRET based competitive binding assay relative to control. Conditions: filed as partial agonist.

Test [9] deals with T4, Peroxisome proliferator-activated receptor gamma (Homo sapiens, UniProt P37231).
T4 sequence (P37231 whole entry): T2 sequence (whole entry)
Put plainly: Binding affinity to PPARgamma (unknown origin) assessed as inhibition constant by Cheng-Prusoff equation analysis.

For test [10], the target named is T2, Peroxisome proliferator-activated receptor gamma (Homo sapiens). Put plainly: Partial agonist activity at PPARgamma in human BMMSC cells assessed as inhibition of pioglitazone-induced adiponectin synthesis measured after 5 days by ELISA. Format: cell-based. Conditions: filed as partial agonist, dose 10-30 µM, time 5.0 day, DDE = dose-dependent effect.
Test [11] has as its target T5, Peroxisome proliferator-activated receptor alpha (Homo sapiens, UniProt Q07869).
T5 sequence (Q07869 whole entry): T1 sequence (whole entry)
Put plainly: Binding affinity to PPARalpha (unknown origin) assessed as inhibition constant by Cheng-Prusoff equation analysis.

For test [12], the target named is T6, Peroxisome proliferator-activated receptor delta (Homo sapiens, UniProt Q03181).
T6 sequence (Q03181 whole entry): T3 sequence (whole entry)
The test is described as follows: Binding affinity to PPARdelta (unknown origin) assessed as inhibition constant by Cheng-Prusoff equation analysis.

The target in test [13] is T5, Peroxisome proliferator-activated receptor alpha. Put plainly: Partial agonist activity at PPARalpha (unknown origin) assessed as increase in PRIP/RAP250 coactivator peptide requirement by Lanthascreen TR-FRET assay.
In test [14] the target is T4, Peroxisome proliferator-activated receptor gamma. The test is described as follows: Partial agonist activity at PPARgamma (unknown origin) assessed as increase in fluorescein labeled PRIP/RAP250 coactivator peptide requirement by Lanthascreen TR-FRET assay.
Test [15] has as its target T2, Peroxisome proliferator-activated receptor gamma (Homo sapiens). The test is described as follows: Partial agonist activity at PPARgamma (unknown origin) assessed as increase in fluorescein labeled SRC-1 coactivator peptide requirement by Lanthascreen TR-FRET assay. As to conditions: filed as partial agonist.
For test [16] the target is unchanged. Put plainly: Partial agonist activity at PPARgamma (unknown origin) assessed as increase in fluorescein labeled SRC-2 coactivator peptide requirement by Lanthascreen TR-FRET assay. As to conditions: filed as partial agonist.
Test [17] has as its target T6, Peroxisome proliferator-activated receptor delta. Put plainly: Partial agonist activity at PPARdelta (unknown origin) assessed as increase in fluorescein labeled PRIP/RAP250 coactivator peptide requirement by Lanthascreen TR-FRET assay.
The target of test [18] is T7, Retinoic acid receptor RXR-alpha (Homo sapiens) (UniProt P19793).
T7 sequence (whole entry): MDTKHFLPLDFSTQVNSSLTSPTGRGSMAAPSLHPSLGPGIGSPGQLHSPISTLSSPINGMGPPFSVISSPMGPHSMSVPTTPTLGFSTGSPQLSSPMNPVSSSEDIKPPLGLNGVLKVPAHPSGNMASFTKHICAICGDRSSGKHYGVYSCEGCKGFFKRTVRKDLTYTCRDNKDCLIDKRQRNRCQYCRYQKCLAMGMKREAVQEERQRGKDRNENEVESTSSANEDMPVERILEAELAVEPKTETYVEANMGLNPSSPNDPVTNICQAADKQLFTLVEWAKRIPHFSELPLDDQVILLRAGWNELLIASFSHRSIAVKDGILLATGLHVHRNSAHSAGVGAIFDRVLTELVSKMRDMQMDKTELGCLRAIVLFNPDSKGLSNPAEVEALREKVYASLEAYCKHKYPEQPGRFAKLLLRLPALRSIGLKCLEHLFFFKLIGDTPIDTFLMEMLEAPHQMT
Put plainly: Agonist activity at RXRalpha-LBD (unknown origin) assessed as transactivation by measuring increase in fluorescein-labelled coactivator PGC-1alpha peptide recruitment at 60 uM by Lanthascreen TR-FRET assay relative to control. Conditions: filed as agonist.

Test [19] has as its target T8, Retinoic acid receptor RXR-alpha (Homo sapiens, UniProt P19793).
T8 sequence (P19793 whole entry): T7 sequence (whole entry)
The test is described as follows: Agonist activity at RXRalpha-LBD (unknown origin) assessed as transactivation by measuring increase in fluorescein-labelled coactivator PGC-1alpha peptide recruitment by Lanthascreen TR-FRET.

The structures appear in SMILES notation. The source made the active and inactive calls. The calls are words filed in the database; no cut-off is given here.

As for `COc1cccc2c(-c3ccc(O)c4c(OC)cccc34)ccc(O)c12`, in the test on Mesenchymal stem cells [1], the result was Active.

For the molecule `COc1cccc2c(-c3cc(-c4ccc(O)c5c(OC)cccc45)c4cccc(OC)c4c3O)ccc(O)c12`, the outcome in the test with Mesenchymal stem cells [1] was Active.

Regarding `COc1ccc(Cl)cc1C(=O)NCCc1ccc(S(=O)(=O)NC(=O)NC2CCCCC2)cc1` [GLYBURIDE], the “fold change (FC)” value in the test with Mesenchymal stem cells [2] was found to be 4.93.

In the case of `CC(=O)c1c(O)cccc1O`, the outcome in the test on Mesenchymal stem cells [1] was Active.

As to `COc1cccc2ccc(-c3cc(-c4ccc(O)c5c(OC)cccc45)c4cccc(OC)c4c3O)c(O)c12`, the outcome with Mesenchymal stem cells [1] was Active.

As for `O=C1CCC(O)c2cccc(O)c21` (stereo not given), the outcome in the test with Mesenchymal stem cells [1] was Active.

As to `COc1cccc2ccc(-c3ccc(O)c4c(OC)cccc34)c(O)c12`, the “fold change (FC)” value in the test on Mesenchymal stem cells [3] was found to be 6. Besides, the EC50 in the test on Mesenchymal stem cells [4] is 15.2 µM. Further, in the test with Mesenchymal stem cells [5], the result was Active. Moreover, the Activity in test [6] is 37.6%; in test [7] it was 61.2%; in test [8] it was 42.1%. Moreover, the Ki in [9] turned out to be 6.6 µM. Besides, the inhibition entry in [10] is “Dde”.

For `Cc1cc(=O)c2c(O)cccc2o1`, the outcome with Mesenchymal stem cells [1] was Active.

For the molecule `COc1cccc2ccc(-c3cc(-c4ccc(O)c5c(OC)cccc45)c(O)c4c(OC)cccc34)c(O)c12`, the result with Mesenchymal stem cells [1] was Active.

Regarding `COc1cccc2ccc(-c3ccc4cccc(OC)c4c3O)c(O)c12`, the result in the test on Mesenchymal stem cells [1] was Active.

Take `CCc1ccc(CCOc2ccc(CC3SC(=O)NC3=O)cc2)nc1` (stereo not given) [PIOGLITAZONE]: the EC50 with Mesenchymal stem cells [4] was determined as 0.79 µM.

`COc1cccc2ccc(-c3cc(-c4ccc5cccc(OC)c5c4O)c4cccc(OC)c4c3O)c(O)c12`: the “fold change (FC)” value in the test with Mesenchymal stem cells [3] is on record as 4.1. Moreover, the EC50 in the test with Mesenchymal stem cells [4] was 30.8 µM; in [13], 58.2 µM; in test [14], 50.8 µM; in test [17], 53.9 µM; in test [19], 52.9 µM. The result (with Mesenchymal stem cells [5]; in test [15]; in [16]) was Active. Further, the Activity in test [6] (filed as partial agonist) stood at 56.5%; in test [7], 52%; in test [8], 51.8%; in test [18], 53.2%. Also, the Ki in test [11] came to 9.4 µM; in [9], 19.1 µM; in test [12] it was 18.8 µM. Also, the inhibition entry in test [10] is “Dde”.

Usually EC50 stands for the concentration that produces a half-maximal response. For orientation: Ki means a dissociation constant, usually derived from enzyme kinetics or from competition with a known ligand.

The values above are taken from ChEMBL document CHEMBL5215009, “Discovery of Pan-peroxisome Proliferator-Activated Receptor Modulators from an Endolichenic Fungus, Daldinia childiae” (J Nat Prod, 2022).
